This test has as its system db/db mice. Put plainly: In vivo assay in db/db mice (model of postprandial glycemia). Particulars: db/db mice fasted 20 hours, 50 mg/kg p.o., 4 hrs after drug administration, compared to vehicle-treated animals (Group 1). How it is done:
In Vivo Assay in db/db Mice
The following assay aims at determining the anti-diabetic effect of the test compounds of formula (I) in a model of postprandial glycemia in db/db mice, in vivo.
The assay was performed as follows:
A total of 18 db/db mice (about 8-9 weeks; obtained from IFFACREDO, l'Arbreste, France) were fasted during 20 hours.
3 groups, each consisting of 6 animals were formed: • Group 1: The animals were administered (per os) a dose of 10 mg/kg of vehicle. • Group 2: The animals were administered (per os) a dose of 30 mg/kg of the test compound according to formula (I). • Group 3: The animals were administered (per os) a dose of 50 mg/kg of the test compound according to formula (I).
After oral administration of the compounds of formula (I) solubilized or suspended in CarboxyMethylCellulose (0.5%), Tween 20 (0.25%) and water as vehicle, the animals had access to commercial food (D04, UAR, Villemoisson/Orge, France) ad libitum. The diabetic state of the mice was verified by determining the blood glucose level before drug administration. Blood glucose and serum insulin levels were then determined 4 hrs after drug administration. […]
Changes in blood glucose and serum insulin of drug treated mice were expressed as a percentage of control (group 1: vehicle treated mice).

Structures are written as SMILES.

In the case of `CCCCNC1CCN(S(=O)(=O)c2ccc(CNC(=O)c3ccc(Cl)cc3)s2)CC1` [4-chloro N-[(5-{[(butylamino)piperidin-1-yl]sulfonyl}thien-2-yl)methyl]benzamide], the “decrease in blood glucose level induced by food intake” value is 42%. Moreover, for the setting “ELISA”, the “decrease in the (serum/blood) insulin level” value turned out to be 61%.

(Values after patent US7705052B2, “Sulfonamide derivatives for the treatment of diabetes” (Merck Serono SA, priority 2003, dated 2010).)
